This note sets out measurements from patent publication US10059669B2, “2-amino-3,5-difluoro-3,6-dimethyl-6-phenyl-3,4,5,6-tetrahydropyridines as BACE1 inhibitors for treating alzheimer's disease” (H. Lundbeck A/S, priority 2014, dated 2018).

The test system of this experiment is Aβ40. Description: Assessment of Aβ levels in rat brain and plasma following BACE1 inhibition (Aβ40 ELISA). It is filed as in vivo. The conditions noted are these: 180 minutes, vs vehicle. How it is done: Assessment of Aβ Levels in Rat Brain and Plasma Following BACE1 Inhibition. Animals.
All rat care and experimental procedures were approved by Lundbeck Veterinary Staff, according to Danish legislature. The rats were maintained in a barrier facility with a 12/12-h light/dark cycle and ad libitum food and water access.
Young adult Male Sprague Dawley rats of approximately 250 g weight were purchased from Charles River and received 0-30 mg/kg of vehicle (10% HP betaCD+1M MeSO4, pH 2.5) or test compounds (dissolved in vehicle) only by oral gavage (p.o). The compounds are dosed at a volume of 5 ml/kg. Cohorts of 5-10 animals were established for each treatment condition.
At T=180 minutes after initial dosing the animals were stunned and decapitated with a guillotine. Trunk-blood was sampled in EDTA coated tubes after decapitation of the animal. The blood was centrifuged at 2200G at 4° C. for 15 minutes and the plasma was collected and frozen at −80° C. The blood was aliquoted for Aβ ELISA and DMPK analysis. Immediately following sacrifice, the brain was extracted and split into 2 halves. The right hemibrains were snap frozen on dry ice and stored at −80° C. The left half was dissected; with the front forebrain taken for Aβ ELISA and the remainder used for DMPK analysis. These samples were also snap frozen on dry ice and stored at −80° C. until use for analysis.
The cortex samples were thawed slightly on wet ice before they were homogenized with a small volume dispersing instrument (T10 basic ULTRA-TURRAX®) which was set at speed 5 for approximately 5-7 sec. The tissue was processed in a 10 times volume of the weight, for example 100 mg of tissue was homogenized in 1000 μL of Homogenization buffer. Homogenization buffer: 50 ml Milli Q water+50 nM NaCl+0.2% Diethylamin (DEA)+1 tablet of Complete Protease inhibitor cocktail+1 nM 4-(2-aminoethyl) benzenesulfonyl fluoride hydrochloride irreversible serine protease inhibitor (AEBSF).
After homogenization 450 μL aliquots of the samples are collected into a 1.5 ml Eppendorf tube and placed on wet ice, 0.5% NP-40 (50 ul) was added to all samples and then they were incubated on ice for 30 min. After which all samples were sonicated using an Ultrasonic homogenizer with 20 kHz homogeneous sound (SONOPLUS HD2070, Bandelin Electronic) 10 pulse set at 12-13% power to extract all the Aβ species. The samples were then centrifuged (Ole Dich 157 MPRF Micro centrifuge) at 20000G for 20 minutes at 4° C. After centrifugation 285 μL of the supernatant was pipetted into 600 μL microtubes tubes and neutralized with 15 μL of 1M Tris-HCL buffer.
WAKO 294-62501 Human/Rat Abeta amyloid (40) kit was used for all ELISA analyses. 30 μL plasma samples or 30 μL of the cortex supernatants generated as described above were placed in 600 μL microtubes tubes on wet ice. To this 30 μL of 8M Urea (AppliChem A1049, 9025) are added to generate a 2-fold dilution. Both plasma and cortex supernatants are incubated on ice for 30 min. Standard rows were prepared from the standard peptide stock provided in the kit and standard diluent containing 1.6M Urea (200 μL 8M Urea+800 μL of standard diluent) and 0.8M Urea (400 μL 8M Urea+3600 μL Standard diluent). A serial 2-fold dilution of A340 from […] to 0 μmol/L was prepared for the assay.
After incubation with urea, all samples were further diluted by addition of 5 times standard diluent from the Kit. This was done by adding 240 μL Standard Diluent to 60 μL sample/urea mixture, which was then mixed well. 100 μL of each diluted sample was pipetted into designated wells of the ELISA plate in duplicates. The plate was then covered and incubated overnight at 4° C. The following day, the ELISA kit was brought to room temperature before use. The incubated plate was washed 5 times with the 20× washing solution diluted in Milli Q water. 100 μL HRP-conjugate was applied to each well, and the plate was covered and incubates at 4° C. for 1 hr. The wash was repeated again for 5 times. […]

As for `[2H]C([2H])([2H])Oc1cnc(C(=O)Nc2ccc(F)c([C@@]3(C)N=C(N)[C@@](C)(F)C[C@@H]3F)c2)cn1` [Compound 20, N-(3-((2R,3S,5S)-6-amino-3,5-difluoro-2,5-dimethyl-2,3,4,5-tetrahydropyridin-2-yl)-4-fluorophenyl)-5-(methoxy-d3)pyrazine-2-carboxamide], the Aβ40 reduction reads like this: (Brain Rat, 3 mg/kg p.o.) 52%; (Plasma Rat, 3 mg/kg p.o.) 64%.
For the compound `[2H]C([2H])([2H])Oc1ccc(C(=O)Nc2ccc(F)c([C@@]3(C)N=C(N)[C@@](C)(F)C[C@@H]3F)c2)nc1` [Compound 19, N-(3-((2R,3S,5S)-6-amino-3,5-difluoro-2,5-dimethyl-2,3,4,5-tetrahydropyridin-2-yl)-4-fluorophenyl)-5-(methoxy-d3)picolinamide], the Aβ40 reduction runs as follows: (Brain Rat, 10 mg/kg p.o.) 56%; (Brain Rat, 30 mg/kg p.o.) 66%; (Plasma Rat, 10 mg/kg p.o.) 49%; (Plasma Rat, 30 mg/kg p.o.) 53%.
For the compound `COc1ccc(C(=O)Nc2ccc(F)c([C@@]3(C)N=C(N)[C@@](C)(F)C[C@@H]3F)c2)nc1` [Compound 3, N-(3-((2R,3S,5S)-6-amino-3,5-difluoro-2,5-dimethyl-2,3,4,5-tetrahydropyridin-2-yl)-4-fluorophenyl)-5-methoxypicolinamide], the Aβ40 reduction (Brain Rat, 10 mg/kg p.o.) came out at 35%; the Aβ40 reduction (Brain Rat, 30 mg/kg p.o.) is reported as 61%; the Aβ40 reduction (Plasma Rat, 10 mg/kg p.o.) is 24%; the Aβ40 reduction (Plasma Rat, 30 mg/kg p.o.) is 53%.
